# Laboratory results: patent US20060252807A1, “Novel ortho-terphenyl inhibitors of p38 kinase and methods of treating inflammatory disorders” (Kalypsys, Inc., priority 2005, published 2006)
# pIC50: −log10 of the molar value.
# Biological target: T1, active p38 alpha enzyme (Upstate Biotechnology) (Homo sapiens, UniProt Q16539)
# T1 construct: purchased Upstate Biotechnology
# Experiment: p38α biochemical assay (ATP turnover, luminescent detection, Cambrex PKlight)
# Details: p38α biochemical assay, Table 1 Biological Activity
# Procedure: The p38α biochemical assay employed is based on measurement of total ATP turnover following enzyme incubation with substrate in the presence of ATP with the use of a luminescent detection reagent (Cambrex PKlight). The assays were performed in 1536-well white opaque plates.
# The final volume was 7.5005 μL as prepared prepared from the addition of 5 ul of kinase reaction (p38 alpah+MapkapK2+ATP) with 0.0005 μL compound dissolved in DMSO, and 2.5 ul of the detection reagent. Assay buffer contains the following reagents to give final concentration in the assay: 200 mM Tris, 100 mM MgCl2, 1.5 mM EGTA, 4 mM CaCl2, 20 mM MOPS, 1 mM EDTA, 1% glycerol, 0.1% B-Mecaptoethanol, and 1 mg/ml BSA. Test compounds are pinned using proprietary pintool technology (Kalypsys, Inc) and delivered as […] amounts into the 5 ul mixture of active p38 alpha enzyme (Upstate Biotechnology) and MapkapK2 (Upstate Biotechnology) whole protein as a substrate for phosphorylation in the presence of 1.4 uM final concentration ATP. Reactions are incubated at 30C for 2 hours and detection reagent is added in 2.5 ul/well amounts. Assay is read using a Perkin Elmer Viewlux.
# T1 sequence (Q16539 whole entry): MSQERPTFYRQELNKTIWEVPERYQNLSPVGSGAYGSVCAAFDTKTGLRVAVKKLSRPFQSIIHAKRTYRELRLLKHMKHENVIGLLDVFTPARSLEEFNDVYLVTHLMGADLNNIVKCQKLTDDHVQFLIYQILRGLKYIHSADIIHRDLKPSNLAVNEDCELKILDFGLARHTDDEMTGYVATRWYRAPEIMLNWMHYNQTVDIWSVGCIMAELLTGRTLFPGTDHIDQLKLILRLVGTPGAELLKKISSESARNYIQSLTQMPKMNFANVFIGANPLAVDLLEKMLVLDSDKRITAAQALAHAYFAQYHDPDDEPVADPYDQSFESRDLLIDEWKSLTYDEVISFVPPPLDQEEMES
row,SMILES,pIC50
1,"C#CCNC(=O)c1csc(-c2c(-c3ccc(F)cc3)ncn2C2CCN(Cc3ccccc3)CC2)n1 [Example 89, 2-|3-(1-Benzyl-piperidin-4-yl)-5-(4-fluoro-phenyl)-3H-imidazol-4-yl|-thiazole-4-carboxylic acid prop-2-ynylamide]",< 6.00
2,"CC(C)NC(=O)c1csc(-c2c(-c3ccc(F)cc3)ncn2C2CCN(C(=O)OC(C)(C)C)CC2)n1 [Example 90, 4-|4-(4-Fluoro-phenyl)-5-(4-isopropylcarbamoyl-thiazol-2-yl)-imidazol-1-yl|-piperidine-1-carboxylic acid tert-butyl ester]",< 6.00
3,"C#CCNC(=O)c1csc(-c2c(-c3ccc(F)cc3)ncn2C2CCNCC2)n1 [Example 92, 2-|5-(4-Fluoro-phenyl)-3-piperidin-4-yl-3H-imidazol-4-yl|-thiazole-4-carboxylic acid prop-2-ynylamide]",≥ 6.00
4,"C#CCNC(=O)c1csc(-c2c(-c3ccc(F)cc3)ncn2C2CCN(C(=O)CO)CC2)n1 [Example 94, 2-{5-(4-Fluoro-phenyl)-3-|1-(2-hydroxy-acetyl)-piperidin-4-yl|-3H-imidazol-4-yl}-thiazole-4-carboxylic acid prop-2-ynylamide]",≥ 6.00
5,"O=C(O)c1csc(-c2c(-c3ccc(F)cc3)ncn2C2CCNCC2)n1 [Example 95, 2-|5-(4-Fluoro-phenyl)-3-piperidin-4-yl-3H-imidazol-4-yl|-thiazole-4-carboxylic acid]",< 6.00
6,"CC(C)NC(=O)c1csc(-c2[nH]c(N)nc2-c2ccc(F)cc2)n1 [Example 96, 2-|2-Amino-5-(4-fluoro-phenyl)-3H-imidazol-4-yl|-thiazole-4-carboxylic acid isopropylamide]",≥ 6.00
7,"CC(C)NC(=O)c1csc(-c2c(-c3ccc(F)cc3)nc3ncccn23)n1 [Example 97, 2-|2-(4-Fluoro-phenyl)-imidazo|1,2-a|pyrimidin-3-yl|-thiazole-4-carboxylic acid isopropylamide]",< 6.00
8,CC(C)NC(=O)c1csc(-c2oc(CN)nc2-c2ccc(F)cc2)n1 [Example 98],< 6.00
9,CC(C)NC(=O)c1csc(-c2oc(CNC(=O)C=O)nc2-c2ccc(F)cc2)n1 [Example 99],< 6.00
10,CC(C)NC(=O)c1csc(-c2oc(CNC(=O)CC#N)nc2-c2ccc(F)cc2)n1 [Example 100],≥ 6.00
11,CC(C)NC(=O)c1csc(-c2oc(CNC(=O)C(C)O)nc2-c2ccc(F)cc2)n1 (centres unmarked) [Example 101],≥ 6.00
12,CCC(=O)C(=O)NCc1nc(-c2ccc(F)cc2)c(-c2nc(C(=O)NC(C)C)cs2)o1 [Example 102],≥ 6.00
13,CC(C)NC(=O)c1csc(-c2oc(CNC(=O)C(C)(C)C)nc2-c2ccc(F)cc2)n1 [Example 103],≥ 6.00
14,CC(C)CC(=O)NCc1nc(-c2ccc(F)cc2)c(-c2nc(C(=O)NC(C)C)cs2)o1 [Example 104],≥ 6.00
15,CC(C)NC(=O)c1csc(-c2oc(CNC(=O)c3cnc[nH]3)nc2-c2ccc(F)cc2)n1 [Example 105],≥ 6.00
16,CC(C)NC(=O)c1csc(-c2oc(CNC(=O)C3=CCCC3)nc2-c2ccc(F)cc2)n1 [Example 107],< 6.00

row,SMILES,pIC50
1,CC(C)NC(=O)c1csc(-c2oc(CNC(=O)C(F)(F)F)nc2-c2ccc(F)cc2)n1 [Example 108],≥ 6.00
2,CC(C)NC(=O)c1csc(-c2oc(CNC(=O)C3CCCO3)nc2-c2ccc(F)cc2)n1 (centres unmarked) [Example 109],≥ 6.00
3,CC(=O)NCC(=O)NCc1nc(-c2ccc(F)cc2)c(-c2nc(C(=O)NC(C)C)cs2)o1 [Example 110],≥ 6.00
4,CC(C)NC(=O)c1csc(-c2oc(CNC(=O)c3cccnc3)nc2-c2ccc(F)cc2)n1 [Example 112],≥ 6.00
5,CC(C)NC(=O)c1csc(-c2oc(CNC(=O)c3ccccn3)nc2-c2ccc(F)cc2)n1 [Example 114],< 6.00
6,CC(C)NC(=O)c1csc(-c2oc(CNC(=O)C(O)CCl)nc2-c2ccc(F)cc2)n1 (centres unmarked) [Example 115],≥ 6.00
7,CC(C)NC(=O)c1csc(-c2oc(CNC(=O)c3cn(C)cn3)nc2-c2ccc(F)cc2)n1 [Example 117],< 6.00
8,CC(C)NC(=O)c1csc(-c2oc(CNC(=O)C3CCCCC3)nc2-c2ccc(F)cc2)n1 [Example 118],≥ 6.00
9,CC(C)NC(=O)c1csc(-c2oc(CNC(=O)c3cscn3)nc2-c2ccc(F)cc2)n1 [Example 119],≥ 6.00
10,CCOC(=O)CC(=O)NCc1nc(-c2ccc(F)cc2)c(-c2nc(C(=O)NC(C)C)cs2)o1 [Example 120],≥ 6.00
11,CCCCCCCC(=O)NCc1nc(-c2ccc(F)cc2)c(-c2nc(C(=O)NC(C)C)cs2)o1 [Example 128],≥ 6.00
12,CC(C)NC(=O)c1csc(-c2oc(CNC(=O)c3ccc(C#N)cc3)nc2-c2ccc(F)cc2)n1 [Example 129],≥ 6.00
13,CC(C)NC(=O)c1csc(-c2oc(CNC(=O)/C=C/c3ccccc3)nc2-c2ccc(F)cc2)n1 [Example 131],≥ 6.00
14,CC(C)NC(=O)c1csc(-c2oc(CNC(=O)c3ccc(C=O)cc3)nc2-c2ccc(F)cc2)n1 [Example 133],≥ 6.00
15,CC(C)NC(=O)c1csc(-c2oc(CNC(=O)Cc3ccccc3O)nc2-c2ccc(F)cc2)n1 [Example 143],≥ 6.00
16,CC(C)NC(=O)c1csc(-c2oc(CNC(=O)Cc3cccc(O)c3)nc2-c2ccc(F)cc2)n1 [Example 144],≥ 6.00

# Now from value to compound:
row,pIC50,SMILES
1,≥ 6.00,CC(C)NC(=O)c1csc(-c2oc(CNC(=O)c3ncc[nH]3)nc2-c2ccc(F)cc2)n1 [Example 106]
2,< 6.00,CC(C)NC(=O)c1csc(-c2oc(CNC(=O)c3ccccc3)nc2-c2ccc(F)cc2)n1 [Example 111]
3,≥ 6.00,CC(C)NC(=O)c1csc(-c2oc(CNC(=O)c3ccncc3)nc2-c2ccc(F)cc2)n1 [Example 113]
4,≥ 6.00,Cc1cc(C(=O)NCc2nc(-c3ccc(F)cc3)c(-c3nc(C(=O)NC(C)C)cs3)o2)n[nH]1 [Example 116]
5,< 6.00,Cc1cccc(C(=O)NCc2nc(-c3ccc(F)cc3)c(-c3nc(C(=O)NC(C)C)cs3)o2)c1 [Example 121]
6,< 6.00,Cc1ccccc1C(=O)NCc1nc(-c2ccc(F)cc2)c(-c2nc(C(=O)NC(C)C)cs2)o1 [Example 122]
7,< 6.00,Cc1ccc(C(=O)NCc2nc(-c3ccc(F)cc3)c(-c3nc(C(=O)NC(C)C)cs3)o2)cc1 [Example 123]
8,≥ 6.00,CC(C)NC(=O)c1csc(-c2oc(CNC(=O)c3cccc(O)c3)nc2-c2ccc(F)cc2)n1 [Example 124]
9,< 6.00,CC(C)NC(=O)c1csc(-c2oc(CNC(=O)c3ccccc3O)nc2-c2ccc(F)cc2)n1 [Example 125]
10,< 6.00,CC(C)NC(=O)c1csc(-c2oc(CNC(=O)c3ccc(F)cc3)nc2-c2ccc(F)cc2)n1 [Example 126]
11,< 6.00,CC(C)NC(=O)c1csc(-c2oc(CNC(=O)c3cccc(F)c3)nc2-c2ccc(F)cc2)n1 [Example 127]
12,≥ 6.00,CC(C)NC(=O)c1csc(-c2oc(CNC(=O)c3cccc(C#N)c3)nc2-c2ccc(F)cc2)n1 [Example 130]
13,< 6.00,CC(C)NC(=O)c1csc(-c2oc(CNC(=O)c3ccccc3C=O)nc2-c2ccc(F)cc2)n1 [Example 132]
14,< 6.00,Cc1ccc(C(=O)NCc2nc(-c3ccc(F)cc3)c(-c3nc(C(=O)NC(C)C)cs3)o2)c(C)c1 [Example 134]
15,< 6.00,Cc1ccccc1CC(=O)NCc1nc(-c2ccc(F)cc2)c(-c2nc(C(=O)NC(C)C)cs2)o1 [Example 135]
16,< 6.00,Cc1cccc(C(=O)NCc2nc(-c3ccc(F)cc3)c(-c3nc(C(=O)NC(C)C)cs3)o2)c1C [Example 136]
17,< 6.00,Cc1ccc(C)c(C(=O)NCc2nc(-c3ccc(F)cc3)c(-c3nc(C(=O)NC(C)C)cs3)o2)c1 [Example 137]
18,< 6.00,Cc1cc(C)cc(C(=O)NCc2nc(-c3ccc(F)cc3)c(-c3nc(C(=O)NC(C)C)cs3)o2)c1 [Example 138]
19,< 6.00,Cc1ccc(C(=O)NCc2nc(-c3ccc(F)cc3)c(-c3nc(C(=O)NC(C)C)cs3)o2)cc1C [Example 139]
20,< 6.00,CCc1ccc(C(=O)NCc2nc(-c3ccc(F)cc3)c(-c3nc(C(=O)NC(C)C)cs3)o2)cc1 [Example 140]
21,< 6.00,COc1ccc(C(=O)NCc2nc(-c3ccc(F)cc3)c(-c3nc(C(=O)NC(C)C)cs3)o2)cc1 [Example 141]
22,< 6.00,Cc1cccc(C(=O)NCc2nc(-c3ccc(F)cc3)c(-c3nc(C(=O)NC(C)C)cs3)o2)c1O [Example 142]
23,< 6.00,Cc1ccc(O)c(C(=O)NCc2nc(-c3ccc(F)cc3)c(-c3nc(C(=O)NC(C)C)cs3)o2)c1 [Example 145]
24,≥ 6.00,CC(C)NC(=O)c1csc(-c2oc(CNC(=O)c3cc(O)ccc3O)nc2-c2ccc(F)cc2)n1 [Example 146]
25,≥ 6.00,CC(C)NC(=O)c1csc(-c2oc(CNC(=O)c3cccc(O)c3O)nc2-c2ccc(F)cc2)n1 [Example 147]
26,≥ 6.00,CC(C)NC(=O)c1csc(-c2oc(CNC(=O)c3ccc(O)cc3O)nc2-c2ccc(F)cc2)n1 [Example 148]
27,< 6.00,Cc1ccc(C(=O)NCc2nc(-c3ccc(F)cc3)c(-c3nc(C(=O)NC(C)C)cs3)o2)cc1F [Example 149]
28,≥ 6.00,Cc1ccc(F)cc1C(=O)NCc1nc(-c2ccc(F)cc2)c(-c2nc(C(=O)NC(C)C)cs2)o1 [Example 150]
29,≥ 6.00,CC(C)NC(=O)c1csc(-c2oc(CNC(=O)c3ccccc3Cl)nc2-c2ccc(F)cc2)n1 [Example 151]
30,≥ 6.00,CC(C)NC(=O)c1csc(-c2oc(CNC(=O)c3ccc(Cl)nc3)nc2-c2ccc(F)cc2)n1 [Example 152]
